Measured values reported in patent US20150141381A1, “TETRACYCLINE COMPOUNDS HAVING TARGET THERAPEUTIC ACTIVITIES” (Paratek Pharmaceuticals, Inc., priority 2001, published 2015).
Where two headings read alike, the source gives them in different places.

What was measured:
S. aureus RN450 = test: In Vitro Anti-Bacterial Activity Assay (MIC), gram positive; assay type: cell-based; conditions: for MIC: Staphylococcus aureus, RN450, 18 h
E. coli mL308 225 = test: In Vitro Anti-Bacterial Activity Assay (MIC), gram negative; assay type: cell-based; conditions: for MIC: Escherichia coli, ML308225, 18 h
[1] = MIC class, Table 3, read-out: Antibiotic Activity Gram +
[2] = MIC class, Table 3, read-out: Antibiotic Activity Gram −
[3] = gram positive bacteria, read-out: Antibiotic Activity Gram + (MIC)
[4] = gram negative bacteria, read-out: Antibiotic Activity Gram − (MIC)
[5] = MIC class, Table 3 (Continued), read-out: Gram+ activity
[6] = MIC class, Table 3 (Continued), read-out: Gram− activity

Compound | MIC (S. aureus RN450; [1]) [µg/mL] | MIC (E. coli mL308 225; [2]) [µg/mL] | MIC (S. aureus RN450; [3]) [µg/mL] | MIC (E. coli mL308 225; [4]) [µg/mL] | other results
CN(C)c1cc(NC(=O)Oc2ccccc2)c(O)c2c1C[C@H]1C[C@H]3[C@H](N(C)C)C(O)=C(C(N)=O)C(=O)[C@@]3(O)C(O)=C1C2=O [drawing 3360] |  |  |  |  | MIC (S. aureus RN450; read-out: Antibiotic Activity Gram + (MIC)): > 4 µg/mL; MIC (E. coli mL308 225; read-out: Antibiotic Activity Gram − (MIC)): > 4 µg/mL
C[C@H]1c2ccc(/C=C\C(=O)NC(C)(C)C)c(O)c2C(=O)C2=C(O)[C@]3(O)C(=O)C(C(N)=O)=C(O)[C@@H](N(C)C)[C@@H]3[C@@H](O)[C@@H]21 [CU] | > 4 | > 4 |  |  | 
CN(C)CCC(=O)c1cc(C(C)(C)C)c(O)c2c1C[C@H]1C[C@H]3[C@H](N(C)C)C(O)=C(C(N)=O)C(=O)[C@@]3(O)C(O)=C1C2=O |  |  | < 4 | < 4 | 
CN(C)[C@@H]1C(O)=C(C(N)=O)C(=O)[C@@]2(O)C(O)=C3C(=O)c4c(O)ccc(-c5ccncc5)c4C[C@H]3C[C@@H]12 |  |  | < 4 | < 4 | 
CCCOc1cccc2c1C(=O)C1=C(O)[C@]3(O)C(=O)C(C(N)=O)=C(O)[C@@H](N(C)C)[C@@H]3C[C@@H]1C2 [drawing 3586] |  |  |  |  | Antibiotic Activity Gram + (MIC) (S. aureus RN450; gram positive bacteria): * (compounds with an MIC of greater than 4 μg/ml are indicated with *); Antibiotic Activity Gram − (MIC) (E. coli mL308 225; gram negative bacteria): * (compounds with an MIC of greater than 4 μg/ml are indicated with *)
CCN(CC)Cc1ccc(OC)c(-c2ccc(O)c3c2C[C@H]2C[C@H]4[C@@H](N(C)C)C(O)=C(C(N)=O)C(=O)[C@@]4(O)C(O)=C2C3=O)c1 [J] | < 4 | < 4 |  |  | 
CCOC(=O)CNCc1ccc(-c2ccc(O)c3c2C[C@H]2C[C@H]4[C@@H](N(C)C)C(O)=C(C(N)=O)C(=O)[C@@]4(O)C(O)=C2C3=O)cc1 [GK] | < 4 | > 4 |  |  | 
COC(=O)C(CC(C)C)NCc1ccc(OC)c(-c2ccc(O)c3c2C[C@H]2C[C@H]4[C@H](N(C)C)C(O)=C(C(N)=O)C(=O)[C@@]4(O)C(O)=C2C3=O)c1 (some centres unmarked) [FY] | < 4 | > 4 |  |  | 
CN(C)[C@@H]1C(O)=C(C(N)=O)C(=O)[C@@]2(O)C(O)=C3C(=O)c4c(cccc4OCCCO)C[C@H]3C[C@@H]12 |  |  | > 4 | > 4 | 
COc1ccc(CNC2CCCCC2)cc1-c1ccc(O)c2c1C[C@H]1C[C@H]3[C@H](N(C)C)C(O)=C(C(N)=O)C(=O)[C@@]3(O)C(O)=C1C2=O [I] | < 4 | < 4 |  |  | 
CN(C)Cc1cc(-c2ccoc2)c2c(c1O)C(=O)C1=C(O)[C@]3(O)C(=O)C(C(N)=O)=C(O)[C@@H](N(C)C)[C@@H]3C[C@@H]1C2 |  |  | < 4 | > 4 | 
CC1c2cccc(O)c2C(=O)C2=C(O)[C@]3(O)C(=O)C(C(N)=O)=C(O)[C@@H](N(C)C)[C@@H]3[C@@H](OC(=O)CCC(=O)O)[C@@H]21 (some centres unmarked) |  |  |  |  | MIC (S. aureus RN450; [5]): < 4 µg/mL; MIC (E. coli mL308 225; [6]): > 4 µg/mL
CN(C)[C@@H]1C(O)=C(C(N)=O)C(=O)[C@@]2(O)C(O)=C3C(=O)c4c(O)ccc(C#CC5CCCCC5)c4C[C@H]3C[C@@H]12 |  |  |  |  | MIC (S. aureus RN450; [5]): < 4 µg/mL; MIC (E. coli mL308 225; [6]): < 4 µg/mL
CN(C)c1cc(CN2CCC3(CC2)OCCO3)c(O)c2c1C[C@H]1C[C@H]3[C@H](N(C)C)C(O)=C(C(N)=O)C(=O)[C@@]3(O)C(O)=C1C2=O |  |  | < 4 | < 4 | 
CN(C)[C@@H]1C(O)=C(C(N)=O)C(=O)[C@@]2(O)C(O)=C3C(=O)c4c(O)ccc(-c5ccoc5)c4C[C@H]3C[C@@H]12 [drawing 3287] |  |  |  |  | MIC (S. aureus RN450; [5]): < 4 µg/mL; MIC (E. coli mL308 225; [6]): < 4 µg/mL
CCc1ccnc(-c2ccc(O)c3c2C[C@H]2C[C@H]4[C@H](N(C)C)C(O)=C(C(N)=O)C(=O)[C@@]4(O)C(O)=C2C3=O)c1 [NZ] | < 4 | < 4 |  |  | 
COc1ccc(CNCCC#N)cc1-c1ccc(O)c2c1C[C@H]1C[C@H]3[C@H](N(C)C)C(O)=C(C(N)=O)C(=O)[C@@]3(O)C(O)=C1C2=O |  |  | < 4 | > 4 | 
CC(C)NCc1ccc(-c2ccc(O)c3c2C[C@H]2C[C@H]4[C@@H](N(C)C)C(O)=C(C(N)=O)C(=O)[C@@]4(O)C(O)=C2C3=O)o1 [HN] | < 4 | < 4 |  |  | 
CN(C)c1cc(CNCC23CC4CC(CC(C4)C2)C3)c(O)c2c1C[C@H]1C[C@H]3[C@H](N(C)C)C(O)=C(C(N)=O)C(=O)[C@@]3(O)C(O)=C1C2=O |  |  | < 4 | < 4 | 
CN(C)c1cc(CNCc2cc[n+]([O-])cc2)c(O)c2c1C[C@H]1C[C@H]3[C@H](N(C)C)C(O)=C(C(N)=O)C(=O)[C@@]3(O)C(O)=C1C2=O |  |  | > 4 | > 4 | 

Compound | MIC (S. aureus RN450; [1]) [µg/mL] | MIC (E. coli mL308 225; [2]) [µg/mL] | MIC (S. aureus RN450; [3]) [µg/mL] | MIC (E. coli mL308 225; [4]) [µg/mL] | other results
CN(C)CCN(C)Cc1ccc(-c2cc(N(C)C)c3c(c2O)C(=O)C2=C(O)[C@]4(O)C(=O)C(C(N)=O)=C(O)[C@@H](N(C)C)[C@@H]4C[C@@H]2C3)[nH]1 |  |  | > 4 | > 4 | 
CN(C)[C@@H]1C(O)=C(C(N)=O)C(=O)[C@@]2(O)C(O)=C3C(=O)c4c(O)ccc(/C=C/c5ccc(N)cc5)c4C[C@H]3C[C@@H]12 [AY] | < 4 | > 4 |  |  | 
COc1ccc(C=O)cc1-c1ccc(O)c2c1C[C@H]1C[C@H]3[C@@H](N(C)C)C(O)=C(C(N)=O)C(=O)[C@@]3(O)C(O)=C1C2=O [GO] | < 4 | > 4 |  |  | 
COC1C(C(N)=O)=C(O)[C@@H](N(C)C)[C@@H]2[C@@H](O)[C@H]3C(=C(O)[C@]12O)C(=O)c1c(O)cccc1[C@@H]3C (some centres unmarked) |  |  | > 4 | > 4 | 
CONCc1ccc(-c2cc(N(C)C)c3c(c2O)C(=O)C2=C(O)[C@]4(O)C(=O)C(C(N)=O)=C(O)[C@@H](N(C)C)[C@@H]4C[C@@H]2C3)[nH]1 |  |  | < 4 | < 4 | 
CN(C)CC#Cc1ccc(O)c2c1C[C@H]1C[C@H]3[C@H](N(C)C)C(O)=C(C(N)=O)C(=O)[C@@]3(O)C(O)=C1C2=O [AL] | < 4 | < 4 |  |  | 
CC(=O)c1ccc(-c2ccc(O)c3c2C[C@H]2C[C@H]4[C@H](N(C)C)C(O)=C(C(N)=O)C(=O)[C@@]4(O)C(O)=C2C3=O)cc1 |  |  |  |  | MIC (S. aureus RN450; [5]): < 4 µg/mL; MIC (E. coli mL308 225; [6]): < 4 µg/mL
COc1cccc(CNCc2cc(N(C)C)c3c(c2O)C(=O)C2=C(O)[C@]4(O)C(=O)C(C(N)=O)=C(O)[C@@H](N(C)C)[C@@H]4C[C@@H]2C3)c1 |  |  | < 4 | > 4 | 
CN(C)[C@@H]1C(O)=C(C(N)=O)C(=O)[C@@]2(O)C(O)=C3C(=O)c4c(O)c(CNc5ccccc5)cc(I)c4C[C@H]3C[C@@H]12 |  |  | < 4 | > 4 | 
CN(C)[C@@H]1C(O)=C(C(N)=O)C(=O)[C@@]2(O)C(O)=C3C(=O)c4c(O)ccc(-c5ccc(-n6cccc6)nc5)c4C[C@H]3C[C@@H]12 |  |  | < 4 | < 4 | 
COCc1ccc(O)c2c1C[C@H]1C[C@H]3[C@H](N(C)C)C(O)=C(C(N)=O)C(=O)[C@@]3(O)C(O)=C1C2=O |  |  | < 4 | < 4 | 
Cc1ccc(-c2ccc(O)c3c2C[C@H]2C[C@H]4[C@H](N(C)C)C(O)=C(C(N)=O)C(=O)[C@@]4(O)C(O)=C2C3=O)cc1 |  |  |  |  | MIC (S. aureus RN450; [5]): < 4 µg/mL; MIC (E. coli mL308 225; [6]): < 4 µg/mL
COC(=O)CCC(=O)Nc1ccc2c(c1O)C(=O)C1=C(O)[C@]3(O)C(=O)C(C(N)=O)=C(O)[C@@H](N(C)C)[C@@H]3C[C@@H]1C2 [IB] | > 4 | > 4 |  |  | 
CN(C)[C@@H]1C(O)=C(C(N)=O)C(=O)[C@@]2(O)C(O)=C3C(=O)c4c(O)ccc(C=CC(N)=O)c4C[C@H]3C[C@@H]12 [BO] | > 4 | > 4 |  |  | 
CN(C)[C@@H]1C(O)=C(C(N)=O)C(=O)[C@@]2(O)C(O)=C3C(=O)c4c(O)ccc(-c5ncccn5)c4C[C@H]3C[C@@H]12 |  |  | < 4 | < 4 | 
CN(C)[C@@H]1C(O)=C(C(N)=O)C(=O)[C@@]2(O)C(O)=C3C(=O)c4c(O)ccc(-c5cccnc5)c4C[C@H]3C[C@@H]12 |  |  | < 4 | < 4 | 
CN(C)[C@@H]1C(O)=C(C(N)=O)C(=O)[C@@]2(O)C(O)=C3C(=O)c4c(O)ccc(-c5ccc(CN6CCOCC6)o5)c4C[C@H]3C[C@@H]12 [HM] | < 4 | < 4 |  |  | 
CN(C)[C@@H]1C(O)=C(C(N)=O)C(=O)[C@@]2(O)C(O)=C3C(=O)c4c(O)c(CN5CCCCC5)cc(-c5ccoc5)c4C[C@H]3C[C@@H]12 [drawing 3602] |  |  | < 4 | > 4 | 
CN(C)[C@@H]1C(O)=C(C(N)=O)C(=O)[C@@]2(O)C(O)=C3C(=O)c4c(O)ccc(/C=C/S(C)(C)C)c4C[C@H]3C[C@@H]12 |  |  |  |  | MIC (S. aureus RN450; [5]): < 4 µg/mL; MIC (E. coli mL308 225; [6]): < 4 µg/mL
CN(C)[C@@H]1C(O)=C(C(N)=O)C(=O)[C@@]2(O)C(O)=C3C(=O)c4c(O)cccc4/C(=C\c4ccc(F)cc4)[C@H]3[C@H](O)[C@@H]12 |  |  |  |  | MIC (S. aureus RN450; [5]): < 4 µg/mL; MIC (E. coli mL308 225; [6]): < 4 µg/mL
